Measured values as given in patent US4585756A, “Bovine GRF” (The Salk Institute for Biological Studies, priority 1983, dated 1986).

Tested on: rat pituitary cells
Assay: in vitro release of growth hormone (ir GH by radioimmunoassay) from cultured rat pituitary cells, side-by-side with hGRF(1-44)-NH2
Type: cell-based
Procedure: To determine the effectiveness of the peptide to promote the release of growth hormone, in vitro assays are carried out using synthetic hGRF(1-44)-NH2 in side-by-side comparison with equimolar concentrations of the extracted and purified bGRF(1-44) of Example II. hGRF thus serves as a GRF Reference Standard having a known effectiveness to promote the release of growth hormone from rat pituitary cells. Cultures are used which include cells of rat pituitary glands removed some four to five days previously. Both cultures of a defined standard medium and cultures which are considered optimal for the secretion of growth hormone are used for the comparative testing, in the general manner described in Brazeau, et al. Regulatory Peptides, 1, 255, 1981. Incubation with the substance to be tested is carried out for 3 to 4 hours, and aliquots of the culture medium are removed and processed to measure their contents in immunoreactive GH(ir GH) by a well-characterized radioimmunoassay.

[1] = equimolar ratios, rat pituitary cell cultures, incubation 3 to 4 hours

CC[C@H](C)[C@H](NC(=O)[C@H](C)NC(=O)[C@H](CC(=O)O)NC(=O)[C@H](C)NC(=O)[C@@H](N)Cc1ccc(O)cc1)C(=O)N[C@@H](Cc1ccccc1)C(=O)N[C@H](C(=O)N[C@@H](CC(N)=O)C(=O)N[C@@H](CO)C(=O)N[C@@H](Cc1ccc(O)cc1)C(=O)N[C@@H](CCCNC(=N)N)C(=O)N[C@@H](CCCCN)C(=O)N[C@H](C(=O)N[C@@H](CC(C)C)C(=O)NCC(=O)N[C@@H](CCC(N)=O)C(=O)N[C@@H](CC(C)C)C(=O)N[C@@H](CO)C(=O)N[C@@H](C)C(=O)N[C@@H](CCCNC(=N)N)C(=O)N[C@@H](CCCCN)C(=O)N[C@@H](CC(C)C)C(=O)N[C@@H](CC(C)C)C(=O)N[C@@H](CCC(N)=O)C(=O)N[C@@H](CC(=O)O)C(=O)N[C@H](C(=O)N[C@@H](CCSC)C(=O)N[C@@H](CC(N)=O)C(=O)N[C@@H](CCCNC(=N)N)C(=O)N[C@@H](CCC(N)=O)C(=O)N[C@@H](CCC(N)=O)C(=O)NCC(=O)N[C@@H](CCC(=O)O)C(=O)N[C@@H](CCCNC(=N)N)C(=O)N[C@@H](CC(N)=O)C(=O)N[C@@H](CCC(N)=O)C(=O)N[C@@H](CCC(=O)O)C(=O)N[C@@H](CCC(N)=O)C(=O)NCC(=O)N[C@@H](C)C(=O)N[C@@H](CCCCN)C(=O)N[C@H](C(=O)N[C@@H](CCCNC(=N)N)C(=O)N[C@@H](CC(C)C)C(N)=O)C(C)C)[C@@H](C)CC)C(C)C)[C@@H](C)O [bGRF(1-44)]
intrinsic biological activity (GH release) compared with synthetic hGRF(1-44)-NH2 [1]: full intrinsic biological activity
potency (GH release) compared with synthetic hGRF(1-44)-NH2 [1]: close to the same potency
intrinsic activity relative to hGRF(1-44)-NH2 (multiple doses factorial design experiments): same intrinsic activity
specific activity relative to hGRF(1-44)-NH2 (multiple doses factorial design experiments, % of hGRF(1-44)-NH2, confidence limits of 54-93%): about 70%
